The source of these data is PubChem BioAssay AID850 (SRMLSC, 2007).

Assay [1] is described as follows: concentration-response yeast growth inhibition under permissive conditions, counter-assay for yeast lifespan-shortening chemical project (AID 850).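 Note: growth read as optical density after one day of incubation.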 The conditions noted are these: Saccharomyces cerevisiae growth inhibition, permissive control, measured here: maximum growth inhibition, stronger effect = higher value.
For assay [2], the system named is Saccharomyces cerevisiae growth inhibition, permissive control. The assay is described as above.

Activity calls are given as the source filed them. The rule behind the calls is not given here.

In general, inhibition refers to the change of the read-out against control, counted positive when it falls. Broadly, the IC50 is the midpoint of a concentration-inhibition curve. As to `CCCC1COC(Cn2cncn2)(c2ccc(Cl)cc2Cl)O1` (stereo unspecified), the inhibition in assay [1] (at 3.125 µM) was 97.3%. For the same compound, the IC50 in assay [2] is 0.184 µM.

As for `COc1cc(C(=O)NC(=S)NNC(=O)c2cnccn2)cc(OC)c1OC`, the inhibition in assay [1] (at 50 µM) was determined as 59.3%. In addition, in assay [2], the IC50 was 23.3 µM.

With `CCn1c2ccccc2c2cc(Nc3cc(C)nc4ncnn34)ccc21`, in assay [1] (at 6.25 µM), the inhibition came to 14.4%. Moreover, the IC50 in assay [2] was > 100 µM (inactive).

Regarding `Clc1ccc(CCNc2nc3ccccc3s2)cc1`, the inhibition in assay [1] (at 0.195 µM) is -6.19%. For the same compound, the IC50 in assay [2] was > 100 µM (inactive).

As for `COc1ccc(-c2cc(=O)n(-c3nc4ccccc4[nH]3)[nH]2)cc1`, the inhibition in assay [1] (at 50 µM) is 98.2%. In assay [2], the 50% inhibitory concentration (IC50) is 14.6 µM.

On to `N/C(Cc1ccccc1)=N\OC(=O)c1cccc2ccccc12`, for which, in assay [1] (at 50 µM), the inhibition worked out at 100%. In assay [2], the IC50 is 8.26 µM.

For the compound `N/C(Cc1ccc(Cl)c(Cl)c1)=N\OC(=O)c1cccs1`, the inhibition in assay [1] (at 0.195 µM) came out at 4.64%. Besides, in assay [2], the IC50 was > 100 µM (inactive).

For `CCCc1cc(-c2n[nH]c(=S)n2C(C)c2ccccc2)cs1` (stereo unspecified), the inhibition in assay [1] (at 0.391 µM) was determined as 1.3%. Further, the IC50 in assay [2] was > 100 µM (inactive).

In the case of `CN1CCN(CC(=O)N2CCn3c4c(c5cc(C6CCCCC6)ccc53)CCCC42)CC1` (stereo unspecified), in assay [1] (at 1.563 µM), the inhibition was found to be 6.73%. Moreover, in assay [2], the IC50 was > 100 µM (inactive).

For the compound `CC(C)(C)c1ccc(NC(=O)COC(=O)c2ccc([N+](=O)[O-])s2)cc1`, the inhibition in assay [1] (at 50 µM) was 56.3%. Further, in assay [2], the IC50 was 49.5 µM.

Take `O=C(/C=C/N1CCOCC1)c1ccc(-c2ccccc2)cc1`: in assay [1] (at 25 µM), the inhibition amounted to 99.6%. The IC50 in assay [2] is 7.19 µM.

With `CNC(=O)Oc1cccc(-c2cn3cc(OC(=O)NC)ccc3n2)c1`, in assay [1] (at 50 µM), the inhibition is 97.6%. Also, in assay [2], the 50% inhibitory concentration (IC50) is 6.45 µM.

Regarding `CC(=O)NC(CCS(C)(=O)=O)C(=O)Nc1ccc2c(c1)OCO2` (stereo unspecified), the inhibition in assay [1] (at 1.563 µM) is -0.58%. In addition, in assay [2], the IC50 is > 100 µM (inactive).

`CCc1cc(-c2n[nH]c(C)c2Oc2ccc(C(C)C)cc2)c(O)cc1O`: the inhibition in assay [1] (at 50 µM) came out at 75.6%. Moreover, the IC50 in assay [2] was 35 µM.

Regarding `CSC1=NSC2=NC(=O)/C(=C/c3coc4ccccc4c3=O)C(=N)N12`, in assay [1] (at 50 µM), the inhibition turned out to be 28.3%. Moreover, in assay [2], the IC50 is > 100 µM (inactive).

Turning to `COC(=O)Cc1cc(=O)n(-c2nc3ccccc3[nH]2)[nH]1`, the inhibition in assay [1] (at 50 µM) came out at 64.1%. Moreover, in assay [2], the IC50 was 45.1 µM.

Regarding `COc1ccc(CNC(=O)CSc2nnc(-c3ccc(NC(C)=O)cc3)n2C)cc1`, the inhibition in assay [1] (at 3.125 µM) came out at 26.8%. Further, the IC50 in assay [2] was > 100 µM (inactive).

Consider `Cc1ccc(/C(N)=N/OC(=O)c2ccc(C)cc2Cl)cc1`, for which the inhibition in assay [1] (at 50 µM) is 98.4%. The IC50 in assay [2] is 8.59 µM.

Turning to `c1ccc2c(c1)nnn1c3ccccc3nc21`, the inhibition in assay [1] (at 3.125 µM) stood at 14.6%. The IC50 in assay [2] was > 100 µM (inactive).

With `CCc1cccc2c(C(=O)COC(=O)c3ccc([N+](=O)[O-])s3)c[nH]c12`, in assay [1] (at 50 µM), the inhibition amounted to 99.4%. Besides, the IC50 in assay [2] is 28 µM.

In the case of `CC1CCCCN1S(=O)(=O)c1coc(C(N)=O)c1` (stereo unspecified), the inhibition in assay [1] (at 3.125 µM) was found to be 3.72%. The IC50 in assay [2] was > 100 µM (inactive).

Consider `Clc1ccc(N=c2ssnc2Cl)cc1`, for which the inhibition in assay [1] (at 50 µM) turned out to be 66.3%. Moreover, the concentration for half-maximal inhibition (IC50) in assay [2] was 32.6 µM.

Turning to `O=C(O)c1ccc2c3c(ncnc13)-c1ccccc1C2=O`, the inhibition in assay [1] (at 50 µM) is 98.6%. The IC50 in assay [2] is 5.54 µM.

As for `c1ccc(-c2ccc(OCCCn3cncn3)cc2)cc1`, the inhibition in assay [1] (at 25 µM) amounted to 57.7%. Besides, the IC50 in assay [2] was 34.1 µM.

Consider `CCCCCCCCCCn1c2c(c(=N)c3c1CCC3)CCC2`, for which the inhibition in assay [1] (at 50 µM) came out at 100%. Further, the IC50 in assay [2] is 12 µM.

For the compound `O=C1C(=C2CCCCC2)SC(=S)N1Cc1ccco1`, the inhibition in assay [1] (at 50 µM) was 11.2%. Moreover, in assay [2], the IC50 was > 100 µM (inactive).

Take `CCOC(=O)c1c(N)sc2c(OC)c(Br)ccc12`: the inhibition in assay [1] (at 3.125 µM) stood at 24.4%. The IC50 in assay [2] was > 100 µM (inactive).

With `O=C(COc1ccccc1)N1CCN=C1SCc1cccnc1`, the inhibition in assay [1] (at 0.781 µM) came to 11.2%. For the same compound, the IC50 in assay [2] is > 100 µM (inactive).

In the case of `CC(C)(C)c1cc(C(c2cccnc2)N2CCN(CCO)CC2)cc(C(C)(C)C)c1O` (stereo unspecified), the inhibition in assay [1] (at 50 µM) stood at 53.3%. The IC50 in assay [2] was 48.7 µM.

As for `N#C/C(=C/c1cn(-c2ccccc2)nc1-c1cccc(OCc2ccc(F)cc2)c1)C(=O)NCCCn1ccnc1`, the inhibition in assay [1] (at 0.391 µM) is 4.5%. The IC50 in assay [2] is > 100 µM (inactive).

As for `CCOC(=O)N1CCN(C(=O)Cn2nc(C)c3sc4ccccc4c3c2=O)CC1`, the inhibition in assay [1] (at 25 µM) is 12.1%. For the same compound, the IC50 in assay [2] is > 100 µM (inactive).

On to `N/C(Cc1ccc(Cl)cc1)=N\OC(=O)C1CCCCC1`, for which, in assay [1] (at 50 µM), the inhibition came out at 98.8%. Besides, the IC50 in assay [2] is 15.8 µM.

For `CCCc1cc(C(=O)NC2CCCCC2)no1`, the inhibition in assay [1] (at 0.391 µM) is 10.3%. Moreover, the IC50 in assay [2] was > 100 µM (inactive).
